Measured values published in patent US8946302B2, “Selective sigma-1 receptor ligands” (Wisconsin Alumni Research Foundation, priority 2008, dated 2015).

What was measured:
sigma-1 receptor [1] = molecular target: T1, sigma-1 receptor (Rattus norvegicus, UniProt Q9R0C9); test: Protection of [125I]-IACoc photolabeling in rat liver membranes; type: binding
T1 construct: from tissue; host or cells: rat liver membranes
Protocol: (§4) Rat liver membranes (100 μg/lane) were suspended in the presence or absence of the protecting drugs. […] Percent band intensities are shown compared to controls performed in the absence of protecting ligand (−).

sigma-1 receptor [2] = molecular target: T1, sigma-1 receptor; test: Protection of [125I]IAF photolabeling of the sigma-1 receptor in rat liver membranes; type: binding
Protocol: as §4

[3] = tested on: human cardiac Na+ channel hNav1.5; test: Patch clamp INa in HEK293 cells stably expressing hNav1.5; type: cell-based; conditions: 100 μM, n=3
Protocol: (§1) To evaluate the capacity of DMT to induce physiological responses by binding to sigma receptors, the action of DMT on voltage-activated Na^+ current was examined. […] Application of 100 μM DMT inhibited INa by 62±3% (n=3), which reversed upon DMT removal. With hNav1.5 transiently transfected into COS-7 cells, 100 μM DMT inhibited INa by only 22±4% (n=3), but photolabeling has shown that these cells have much lower levels of endogenous sigma-1 receptor compared to HEK293 cells (26) (FIG. 7b).
(§2) HEK293 cells stably expressing hNav1.5 were provided by Dr. J. C. Makielski at the University of Wisconsin-Madison (32). COS-7 cells were transiently transfected with recombinant cDNA encoding hNav1.5 using Lipofectamine. Both cell types were cultured on glass coverslips at 37° C. in 5% CO2/air atmosphere, and used for electrophysiological recordings within 3-5 days.
(§3) INa was recorded using whole-cell patch clamp at room temperature. All patch clamp solutions used as well as patch clamp methodology and instrumentation details are previously described (26) with the exception of testing INa inhibition with 100 μM DMT.

hNav1.5 = test: Patch clamp INa in COS-7 cells transiently transfected with hNav1.5; type: cell-based, human; conditions: 100 μM, n=3
Protocol: as §1, §2, §3

[4] = tested on: INa in neonatal mouse cardiac myocytes; test: Patch clamp INa in neonatal cardiac myocytes from WT and sigma-1 receptor KO mice; type: cell-based; conditions: n=7
Protocol: Neonatal mouse cardiac myocytes were enzymatically isolated and cultured on laminin-coated glass coverslips as previously described (33, 34) with minor changes (26).
as §3

[5] = tested on: WT and sigma-1 receptor knockout mice; test: Open-field hypermobility assay in WT and sigma-1 receptor KO mice; type: in vivo, mouse; conditions: 2 mg/kg i.p. two hours after pargyline 75 mg/kg i.p.
Protocol: All mice were maintained on a normal light/dark cycle and handled in accordance with Animal Care and Use Guidelines of the University of Wisconsin, Madison. […] Mice were first acclimatized to the experimental room for one hour. WT and KO mice were injected with the monoamine oxidase inhibitor, pargyline (75 mg/kg, i.p.) two hours prior to DMT or vehicle injection(28). […] Each condition represents 8 to 14 mice (n=8-14). […] A computer program was used to quantitate movement and after each experiment, 70% ethanol was used to remove odors from the open-field.

sigma-1 receptor [6] = molecular target: sigma-1 receptor (Cavia porcellus, UniProt Q60492); test: Affinity for the sigma-1 receptor (Table 3); type: binding; set-up: from tissue
Sequence of sigma-1 receptor (Cavia porcellus, UniProt Q60492) (Q60492 whole entry): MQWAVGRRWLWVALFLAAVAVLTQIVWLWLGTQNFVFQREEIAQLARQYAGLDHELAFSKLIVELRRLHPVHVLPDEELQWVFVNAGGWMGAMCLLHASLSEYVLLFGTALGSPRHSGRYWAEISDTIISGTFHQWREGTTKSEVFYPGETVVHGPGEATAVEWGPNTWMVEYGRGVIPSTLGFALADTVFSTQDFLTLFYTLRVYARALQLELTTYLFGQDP

T1 sequence (Q9R0C9 whole entry): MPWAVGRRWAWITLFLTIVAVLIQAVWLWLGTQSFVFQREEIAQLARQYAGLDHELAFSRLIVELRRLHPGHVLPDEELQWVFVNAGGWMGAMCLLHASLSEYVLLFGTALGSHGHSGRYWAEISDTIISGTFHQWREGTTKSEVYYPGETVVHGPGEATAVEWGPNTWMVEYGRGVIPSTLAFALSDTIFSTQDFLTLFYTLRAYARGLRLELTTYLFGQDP

CN(C)CCc1c[nH]c2ccccc12 [DMT, 2-(1H-indol-3-yl)-N,N-dimethylethylamine]
protection of [125I]-IACoc photolabeling of the 26 kDa sigma-1 receptor (sigma-1 receptor [1]; 50 μM): 61%
protection of [125I]-IACoc photolabeling of the 26 kDa sigma-1 receptor (sigma-1 receptor [1]; 100 μM): ~100%
protection of [125I]IAF photolabeling of the sigma-1 receptor (sigma-1 receptor [2]; 10 μM): 31%
protection of [125I]IAF photolabeling of the sigma-1 receptor (sigma-1 receptor [2]; 50 μM): 43%
protection of [125I]IAF photolabeling of the sigma-1 receptor (sigma-1 receptor [2]; 100 μM): 69%
inhibition of INa [3]: 62±3%
inhibition of INa (hNav1.5): 22±4%
inhibition at 100 µM ([4]; KO myocytes): 7 ± 2%
inhibition at 100 µM ([4]; WT neonatal cardiac myocytes): 29 ± 3%
distance traveled in open-field assay (hypermobility) ([5]; WT mice): 7025±524.1 cm
distance traveled in open-field assay (hypermobility) ([5]; sigma-1 receptor KO mice): 2328±322.9 cm
Kd (sigma-1 receptor [6]): 14.6 µM
